Laboratory results from US20080167282A1, “Use of Inhibitors of Steroid Activity for the Treatment of Substance Related Disorders” (priority 2005, published 2008).

Test: Study on the cocaine addiction: case report of a patient treated for hirsutism
Format: in vivo, human
Settings: cocaine user; 50 mg 1 cp daily; after 6 months of therapy (treatment lasted approximately 9 months)
Description: In the course of the follow up transaminases and hormones were assayed.

**Q.** With `CC(=O)O[C@]1(C(C)=O)CC[C@H]2[C@@H]3C=C(Cl)C4=CC(=O)[C@@H]5C[C@@H]5[C@]4(C)[C@H]3CC[C@@]21C` [cyproterone acetate] as the compound, how does the “cocaine use status during follow up” value read?
**A.** The value was “drug free”.
